Reference: ChEMBL document CHEMBL2057107, “Synthesis and evaluation of aplysinopsin analogs as inhibitors of human monoamine oxidase A and B” (Bioorg Med Chem Lett, 2012)
pIC50: −log10 of the molar value.

Key:
[1] = target: T1, Amine oxidase [flavin-containing] A (Homo sapiens, UniProt P21397); assay: Inhibition of human recombinant MAO-A using kynuramine as substrate preincubated with compound for 15 mins measured after 20 mins by fluorometric analysis
T1 sequence (P21397 whole entry): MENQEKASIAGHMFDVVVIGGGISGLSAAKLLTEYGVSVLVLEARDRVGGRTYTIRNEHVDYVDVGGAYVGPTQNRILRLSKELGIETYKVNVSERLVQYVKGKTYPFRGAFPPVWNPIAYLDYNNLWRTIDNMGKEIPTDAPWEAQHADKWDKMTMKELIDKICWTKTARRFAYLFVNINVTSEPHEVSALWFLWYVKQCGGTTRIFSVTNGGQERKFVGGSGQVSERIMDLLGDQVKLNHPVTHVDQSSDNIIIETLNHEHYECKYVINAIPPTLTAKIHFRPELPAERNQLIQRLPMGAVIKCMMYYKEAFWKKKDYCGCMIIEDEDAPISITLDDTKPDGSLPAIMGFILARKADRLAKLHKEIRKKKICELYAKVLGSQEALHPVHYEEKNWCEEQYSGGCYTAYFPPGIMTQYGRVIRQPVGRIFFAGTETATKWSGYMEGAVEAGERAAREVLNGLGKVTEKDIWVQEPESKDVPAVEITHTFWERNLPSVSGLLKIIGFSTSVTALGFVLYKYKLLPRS

[2] = target: T2, Amine oxidase [flavin-containing] B (Homo sapiens, UniProt P27338); assay: Inhibition of human recombinant MAO-B using kynuramine as substrate preincubated with compound for 15 mins measured after 20 mins by fluorometric analysis
T2 sequence (P27338 whole entry): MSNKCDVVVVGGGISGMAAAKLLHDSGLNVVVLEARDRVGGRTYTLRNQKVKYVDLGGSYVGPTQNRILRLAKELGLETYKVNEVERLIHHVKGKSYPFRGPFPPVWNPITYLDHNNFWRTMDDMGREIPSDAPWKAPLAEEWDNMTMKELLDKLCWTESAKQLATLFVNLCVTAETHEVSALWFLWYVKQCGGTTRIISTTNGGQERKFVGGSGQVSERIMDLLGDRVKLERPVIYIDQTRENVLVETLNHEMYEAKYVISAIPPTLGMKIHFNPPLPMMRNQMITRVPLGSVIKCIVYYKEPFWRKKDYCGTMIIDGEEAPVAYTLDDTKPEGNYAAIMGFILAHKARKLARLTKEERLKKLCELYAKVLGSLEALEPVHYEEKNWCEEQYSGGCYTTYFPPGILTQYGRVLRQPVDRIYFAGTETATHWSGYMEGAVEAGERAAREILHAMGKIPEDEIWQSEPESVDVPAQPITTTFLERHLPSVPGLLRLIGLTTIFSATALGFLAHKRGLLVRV

Homo sapiens = species on record: Homo sapiens; assay: Selectivity ratio of IC50 for human recombinant MAO-B to IC50 for human recombinant MAO-A

| pIC50 [1] | pIC50 [2] | Ratio IC50 (Homo sapiens) | SMILES |
| --- | --- | --- | --- |
| 4.89 | 4.48 | 2.59 | N=C1NC(=O)/C(=C/c2c[nH]c3ccccc23)N1 |
| 6.21 | 5.28 | 8.37 | C/N=C1\N(C)C(=O)/C(=C\c2c[nH]c3cccc(Br)c23)N1C |
| 5.92 | 4.85 | 11.9 | CN1C(=N)N/C(=C\c2c[nH]c3c(Br)cccc23)C1=O |
| 7.74 | 6.68 | 11.2 | C/N=C1\N(C)C(=O)/C(=C\c2c[nH]c3cc(Br)ccc23)N1C |
| 4.91 | 4.36 | 3.55 | CN1C(=N)NC(=O)/C1=C\c1c[nH]c2ccccc12 |
| 5.81 | 5.59 | 1.67 | O=C1NC(=S)N/C1=C\c1c[nH]c2cc(Br)ccc12 |
| 7.54 | 5.57 | 92 | C/N=C1\NC(=O)/C(=C\c2c[nH]c3cc(Br)ccc23)N1C |
| 5.95 | 4.59 | 22.9 | C/N=C1/N/C(=C\c2c[nH]c3cc(Br)ccc23)C(=O)N1C |
| 6.78 | 5.42 | 23 | CN1C(=N)N/C(=C\c2c[nH]c3cc(Br)ccc23)C1=O |
| 5.43 | 4.60 | 6.88 | N=C1NC(=O)/C(=C/c2c[nH]c3cc(Br)ccc23)N1 |
| 6.20 | 5.61 | 3.88 | CSC1=NC(=O)/C(=C/c2c[nH]c3c(Br)cccc23)N1 |
| 6.27 | 5.91 | 2.27 | O=C1NC(=S)N/C1=C\c1c[nH]c2c(Br)cccc12 |
| 5.41 | 4.59 | 6.66 | C/N=C1\NC(=O)/C(=C/c2c[nH]c3c(Br)cccc23)N1 |
| 6.17 | 5.43 | 5.51 | CSC1=NC(=O)/C(=C/c2c[nH]c3cccc(Br)c23)N1 |
| 7.46 | 5.00 | 290 | CN1C(=N)N(C)/C(=C/c2c[nH]c3ccccc23)C1=O [APLYSINOPSIN] |
| 6.49 | 5.37 | 13.2 | CN1C(=N)N/C(=C\c2c[nH]c3ccc(Br)cc23)C1=O |
| 5.10 | 4.61 | 3.06 | CN1C(=N)NC(=O)/C1=C\c1c[nH]c2ccc(Br)cc12 |
| 5.21 | 4.46 | 5.62 | CN1C(=N)NC(=O)/C1=C\c1c[nH]c2c(Br)cccc12 |
| 5.51 | 4.47 | 11 | C/N=C1\NC(=O)/C(=C\c2c[nH]c3ccccc23)N1C [ISOPLYSIN A] |
| 7.01 | 5.04 | 92.3 | C/N=C1\N(C)C(=O)/C(=C\c2c[nH]c3ccccc23)N1C [METHYLAPLYSINOPSIN] |
| 4.84 | 4.61 | 1.69 | O=C1NC(=S)N/C1=C\c1c[nH]c2ccccc12 |
| 8.25 | 6.35 | – | CN1C(=N)N(C)/C(=C/c2c[nH]c3cc(Br)ccc23)C1=O |
| 4.88 | 5.22 | 0.45 | C/N=C1\NC(=O)/C(=C/c2c[nH]c3ccccc23)N1 |
| 5.35 | 4.68 | 4.66 | C/N=C1\NC(=O)/C(=C/c2c[nH]c3cc(Br)ccc23)N1 |
| 4.58 | < 4.00 | – | CN1C(=N)NC(=O)/C1=C\c1c[nH]c2cccc(Br)c12 |

| pIC50 [1] | pIC50 [2] | Ratio IC50 (Homo sapiens) | SMILES |
| --- | --- | --- | --- |
| 5.22 | 4.45 | 5.87 | CN1C(=N)NC(=O)/C1=C\c1c[nH]c2cc(Br)ccc12 |
| 5.24 | 4.52 | 5.24 | C/N=C1/N/C(=C\c2c[nH]c3ccccc23)C(=O)N1C |
| 6.27 | 5.85 | 2.65 | CSC1=NC(=O)/C(=C/c2c[nH]c3cc(Br)ccc23)N1 |
| 5.72 | 4.89 | 6.75 | C/N=C1\NC(=O)/C(=C\c2c[nH]c3c(Br)cccc23)N1C |
| 6.58 | 4.93 | 44.2 | C/N=C1\NC(=O)/C(=C\c2c[nH]c3ccc(Br)cc23)N1C |
| 7.28 | 5.51 | 60.5 | CN1C(=N)N(C)/C(=C/c2c[nH]c3c(Br)cccc23)C1=O |
| 5.92 | 5.70 | 1.66 | C/N=C1\NC(=O)/C(=C/c2c[nH]c3ccc(Br)cc23)N1 |
| 5.26 | 4.56 | 5.04 | N=C1NC(=O)/C(=C/c2c[nH]c3c(Br)cccc23)N1 |
| 5.59 | 4.58 | 10.2 | C/N=C1\NC(=O)/C(=C\c2c[nH]c3cccc(Br)c23)N1C |
| 5.56 | 4.23 | 21.3 | CSC1=N/C(=C\c2c[nH]c3ccccc23)C(=O)N1 |
| 5.82 | 4.43 | 24.4 | CN1C(=N)N/C(=C\c2c[nH]c3cccc(Br)c23)C1=O |
| 5.91 | 5.59 | 2.08 | O=C1NC(=S)N/C1=C\c1c[nH]c2ccc(Br)cc12 |
| 5.74 | 5.15 | 3.9 | C/N=C1\NC(=O)/C(=C/c2c[nH]c3cccc(Br)c23)N1 |
| 6.57 | 6.35 | 1.68 | O=C1NC(=S)N/C1=C\c1c[nH]c2cccc(Br)c12 |
| 5.68 | 4.29 | 24.8 | CN1C(=N)N(C)/C(=C/c2c[nH]c3cccc(Br)c23)C1=O |
| 5.71 | 4.46 | 17.5 | CN1C(=N)N/C(=C\c2c[nH]c3ccccc23)C1=O |
| 5.23 | 4.95 | 1.93 | N=C1NC(=O)/C(=C/c2c[nH]c3ccc(Br)cc23)N1 |
| 5.26 | 4.57 | 4.9 | C/N=C1/N/C(=C\c2c[nH]c3cccc(Br)c23)C(=O)N1C |
| 7.07 | 6.43 | 4.38 | C/N=C1\N(C)C(=O)/C(=C\c2c[nH]c3ccc(Br)cc23)N1C |
| 6.63 | 5.57 | 11.4 | CN1C(=N)N(C)/C(=C/c2c[nH]c3ccc(Br)cc23)C1=O |
| 5.61 | 4.55 | 11.5 | N=C1NC(=O)/C(=C/c2c[nH]c3cccc(Br)c23)N1 |
| 5.15 | 5.06 | 1.22 | CSC1=NC(=O)/C(=C/c2c[nH]c3ccc(Br)cc23)N1 |
| 6.82 | 5.55 | 18.4 | C/N=C1\N(C)C(=O)/C(=C\c2c[nH]c3c(Br)cccc23)N1C |
| 5.97 | 5.37 | 3.94 | C/N=C1/N/C(=C\c2c[nH]c3c(Br)cccc23)C(=O)N1C |
| 5.49 | 4.78 | 5.16 | C/N=C1/N/C(=C\c2c[nH]c3ccc(Br)cc23)C(=O)N1C |
